pEC50: −log10 of the molar value.

Common to all, as to type: cell-based
For one assay, the target named is T1, HarmOR27 (Helicoverpa armigera, UniProt A0A7T3KAG1).
T1 sequence (A0A7T3KAG1 1-426): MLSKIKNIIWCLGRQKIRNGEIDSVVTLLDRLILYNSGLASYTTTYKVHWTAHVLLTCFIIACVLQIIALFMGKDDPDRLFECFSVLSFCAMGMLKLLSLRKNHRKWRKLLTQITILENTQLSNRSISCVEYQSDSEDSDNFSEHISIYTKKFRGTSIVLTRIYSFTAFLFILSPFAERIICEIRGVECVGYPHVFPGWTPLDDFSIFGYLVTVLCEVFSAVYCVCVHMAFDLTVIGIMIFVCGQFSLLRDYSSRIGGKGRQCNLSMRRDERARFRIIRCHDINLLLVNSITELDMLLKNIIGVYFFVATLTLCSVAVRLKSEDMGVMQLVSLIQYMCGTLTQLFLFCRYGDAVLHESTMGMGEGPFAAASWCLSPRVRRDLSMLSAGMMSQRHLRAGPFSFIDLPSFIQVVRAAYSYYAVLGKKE
Kind of assay: Xenopus oocyte two-electrode voltage clamp, HarmOR27 + Orco. As for the experimental part:
(§1) In order to expand our analysis on the response properties of HarmORs, we conducted dose–response analyses for the 28 functional HarmORs. […] Six HarmORs (OR3, 22, 48, 50, 56, and 66) could not be activated by any ligand at 10^−5 M. For the other 22 HarmORs, dose–response curves were generated and EC50 values of their major ligands were calculated (fig. 2A and supplementary table S2, Supplementary Material online). The HarmOR repertoire was highly efficient in terpene detection, since the lowest EC50 values were obtained for such compounds. Many of these terpenes have been proposed to be defensive chemicals of plants. […] DMNT is also one of the oviposition deterring compounds found in larval frass of some Lepidoptera species such as S. littoralis ([Anderson et al. 1993]).
(§2) Functional characterization of individual ORs was performed by heterologous expression in Xenopus oocytes combined with a two-electrode voltage-clamp system ([Wang et al. 2010]). Briefly, the full-length gene of each OR and Orco were subcloned into the eukaryotic expression vector pT7TS. cRNAs were generated from linearized expression vectors using the mMESSAGE mMACHINE T7 kit (Ambion, Austin, TX). Then, the cRNA mixture of ORx and Orco (27.6 ng each) was injected (Nanoliter 2010, WPI Inc., Sarasota, FL) into oocytes (stage V–VII). The respective Orcos of different species were used for functional studies of OR42 orthologs except for the four butterfly species (V. tameamea, P. xuthus, D. plexippus, and P. rapae), in which we used the Orco from P. xuthus. After incubation in nutrient solution at 18 °C for 3–5 days, the response profile of each oocyte to multiple plant odorants was recorded via a two-electrode voltage clamp (OC-725C oocyte clamp, Warner Instruments, Hamden, CT) at a holding potential of −80 mV. Data were acquired by using a Digidata 1440 A and were analyzed by pCLAMP 10.2 software (Axon Instruments Inc., Union City, CA).
(§3) Stock solutions of each odorant were prepared at 1 M using DMSO as a solvent, and each odorant was diluted in 1× Ringer’s solution to the indicated concentrations for electrophysiological recording. For functional screening of each HarmOR, a panel of 67 odorants belonging to three types of chemical classes: terpenes, aromatics, and aliphatics (short-chain fatty acid) were used (supplementary table S1, Supplementary Material online). For functional studies of OR42 orthologs from different species, six odorants including PAA, benzaldehyde, (E)-2-hexen-1-al, cinnamaldehyde, 2-phenylethanol, and heptanal were used.

The target in a further assay is T2, HarmOR43 (Helicoverpa armigera, UniProt A0A7T3KAF8).
T2 sequence (A0A7T3KAF8 1-415): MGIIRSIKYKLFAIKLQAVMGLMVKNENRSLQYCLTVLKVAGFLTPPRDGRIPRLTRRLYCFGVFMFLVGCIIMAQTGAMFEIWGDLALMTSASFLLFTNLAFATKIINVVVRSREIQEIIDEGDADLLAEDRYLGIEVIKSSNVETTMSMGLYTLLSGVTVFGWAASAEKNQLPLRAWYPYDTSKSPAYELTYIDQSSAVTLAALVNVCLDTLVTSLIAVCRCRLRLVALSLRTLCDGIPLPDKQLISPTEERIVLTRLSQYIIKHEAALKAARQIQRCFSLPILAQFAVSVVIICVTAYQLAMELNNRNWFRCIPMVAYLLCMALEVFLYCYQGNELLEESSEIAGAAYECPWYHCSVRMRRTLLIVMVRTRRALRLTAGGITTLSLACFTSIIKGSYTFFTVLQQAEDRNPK
Nature of the assay: Xenopus oocyte two-electrode voltage clamp, HarmOR43 + Orco. Particulars: dose response in oocytes, unit M. As for the experimental part:
as §1
as §2, with “CA). […]” for “CA).”

The target in another assay is T3, HarmOR60 (Helicoverpa armigera, UniProt A0A7T3N1B9).
T3 sequence (A0A7T3N1B9 1-391): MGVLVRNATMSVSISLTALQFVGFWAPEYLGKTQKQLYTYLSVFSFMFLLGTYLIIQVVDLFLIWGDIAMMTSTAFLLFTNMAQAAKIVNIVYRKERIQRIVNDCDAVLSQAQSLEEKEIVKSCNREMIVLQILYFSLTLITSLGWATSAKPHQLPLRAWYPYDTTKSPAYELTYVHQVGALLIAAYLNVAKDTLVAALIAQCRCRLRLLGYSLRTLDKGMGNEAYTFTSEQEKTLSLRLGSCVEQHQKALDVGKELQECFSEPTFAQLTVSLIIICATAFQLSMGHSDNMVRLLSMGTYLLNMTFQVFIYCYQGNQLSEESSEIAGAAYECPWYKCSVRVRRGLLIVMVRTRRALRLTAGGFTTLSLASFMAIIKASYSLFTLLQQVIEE
Kind of assay: Xenopus oocyte two-electrode voltage clamp, HarmOR60 + Orco. Conditions: HarmOR60; dose response in oocytes; unit M. Here is the method:
as §1
as §2, with “CA). […]” for “CA).”

A further assay concerns the target T4, HarmOR19 (Helicoverpa armigera, UniProt A0A7T3N0J7).
T4 sequence (A0A7T3N0J7 1-402): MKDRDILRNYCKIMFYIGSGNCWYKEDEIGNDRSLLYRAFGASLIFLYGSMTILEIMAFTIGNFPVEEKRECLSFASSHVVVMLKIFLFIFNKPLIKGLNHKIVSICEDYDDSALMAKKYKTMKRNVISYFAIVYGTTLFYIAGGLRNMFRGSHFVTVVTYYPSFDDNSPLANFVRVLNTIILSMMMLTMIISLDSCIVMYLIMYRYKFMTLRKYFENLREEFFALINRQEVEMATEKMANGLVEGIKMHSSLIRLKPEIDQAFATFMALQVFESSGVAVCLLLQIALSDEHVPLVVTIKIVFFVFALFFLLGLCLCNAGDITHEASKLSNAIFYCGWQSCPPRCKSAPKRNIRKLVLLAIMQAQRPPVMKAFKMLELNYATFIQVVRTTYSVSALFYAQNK
Kind of assay: Xenopus oocyte two-electrode voltage clamp, HarmOR19 + Orco. Conditions: dose response in oocytes, unit M. Here is the method: as §1
as §2, with “CA). […]” for “CA).”

Another assay concerns the target HarmOR31 (Helicoverpa armigera, UniProt A0A7T3N2E9). Kind of assay: Xenopus oocyte two-electrode voltage clamp, HarmOR31 + Orco.
From the text: In order to expand our analysis on the response properties of HarmORs, we conducted dose–response analyses for the 28 functional HarmORs. […] Many of these terpenes have been proposed to be defensive chemicals of plants.
Briefly, the full-length gene of each OR and Orco were subcloned into the eukaryotic expression vector pT7TS. cRNAs were generated from linearized expression vectors using the mMESSAGE mMACHINE T7 kit (Ambion, Austin, TX). […] The respective Orcos of different species were used for functional studies of OR42 orthologs except for the four butterfly species (V. tameamea, P. xuthus, D. plexippus, and P. rapae), in which we used the Orco from P. xuthus.
as §3

A further assay addresses HarmOR67 (Helicoverpa armigera, UniProt A0A7T3KAH1). Kind of assay: Xenopus oocyte two-electrode voltage clamp, HarmOR67 + Orco. Particulars: dose response in oocytes, unit M. As for the experimental part:
as §1
as §2, with “CA). […]” for “CA).”

HarmOR67, sequence (A0A7T3KAH1 entry or part of it): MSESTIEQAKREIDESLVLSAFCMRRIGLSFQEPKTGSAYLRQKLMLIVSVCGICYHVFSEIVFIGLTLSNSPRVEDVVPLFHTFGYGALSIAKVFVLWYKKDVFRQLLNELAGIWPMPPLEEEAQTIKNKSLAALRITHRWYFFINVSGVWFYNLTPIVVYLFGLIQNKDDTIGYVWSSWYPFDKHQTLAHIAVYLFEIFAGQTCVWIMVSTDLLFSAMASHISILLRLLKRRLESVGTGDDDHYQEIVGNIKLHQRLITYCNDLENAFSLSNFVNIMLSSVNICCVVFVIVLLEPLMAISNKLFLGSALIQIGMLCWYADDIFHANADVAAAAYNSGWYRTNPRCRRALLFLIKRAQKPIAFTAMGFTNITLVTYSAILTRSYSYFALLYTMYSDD
HarmOR31, sequence (A0A7T3N2E9 entry or part of it): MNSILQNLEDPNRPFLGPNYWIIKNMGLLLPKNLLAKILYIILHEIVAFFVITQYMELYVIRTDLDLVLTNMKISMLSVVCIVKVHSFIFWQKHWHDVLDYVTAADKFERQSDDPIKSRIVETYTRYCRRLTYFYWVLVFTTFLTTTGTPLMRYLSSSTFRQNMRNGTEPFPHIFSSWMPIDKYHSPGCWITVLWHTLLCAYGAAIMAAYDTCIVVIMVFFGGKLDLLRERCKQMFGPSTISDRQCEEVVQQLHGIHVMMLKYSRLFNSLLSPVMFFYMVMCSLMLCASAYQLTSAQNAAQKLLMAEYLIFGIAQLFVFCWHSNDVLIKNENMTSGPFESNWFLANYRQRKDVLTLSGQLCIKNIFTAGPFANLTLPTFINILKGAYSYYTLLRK

In the case of `COC(=O)c1ccccc1O` [Methyl salicylate], the negative logarithm of the EC50 (pEC50) on HarmOR27 was 4.81; at HarmOR43 it was 4.80.
For `C[C@@H]1CC[C@H]2C(C)(C)[C@H]3C[C@@]12CC[C@@]3(C)O` [Cedrol], on HarmOR60, the negative-log EC50 (pEC50) is 5.07.
In the case of `CCOC(=O)c1ccccc1` [Ethyl benzoate], the pEC50 is 4.22 at HarmOR19, 4.16 on HarmOR27 and 4.88 at HarmOR31.
For the compound `CCCCCCCO` [1-Heptanol], at HarmOR67, the pEC50 is 3.66.
Take `COC(=O)c1ccccc1` [Methyl benzoate]: the negative logarithm of the EC50 (pEC50) at HarmOR27 was 4.88; on HarmOR43 it was 4.81.

The values are drawn from PMC8042770, “Odorant Receptors for Detecting Flowering Plant Cues Are Functionally Conserved across Moths and Butterflies” (Molecular Biology and Evolution, 2020).
